Laboratory results reported in US10238689B2, “Methods for combating bacterial infections by killing persister cells with mitomycin C and/or cisplatin” (THE PENN STATE RESEARCH FOUNDATION, priority 2015, dated 2019).
Several values for one entry are separate records, joined by “and”; a condition that tells them apart may be missing. Equal entries are not always repeated. Entries after “also recorded” stand apart in the source; their conditions may differ.

How the values were obtained:
EHEC biofilm cultures = details: M9-glucose, 24 h treatment, MMC 10 μg/mL, ciprofloxacin 5 μg/mL
[1] = tested on: E. coli K-12 BW25113 VBNC cultures; assay: VBNC antibiotic killing assay; type: cell-based, Escherichia coli; details: 16 h
Experimental: Overnight cultures (16 h) of E. coli K-12 BW25113 grown in LB were diluted 1:1000 in LB and grown to a turbidity of 3.0 at 600 nm. Cells were washed three times with 0.85% NaCl to remove nutrients and incubated in 0.85% NaCl for 32 days until the VBNC population was ˜1,000-fold higher than the culturable population. […] Samples (0.5 mL) were diluted 1:1 with LB to stimulate cellular respiration for 10 min prior to staining with 1 μL of 1 mM RedoxSensor™ Green dye and 1 μL of 20 mM propidium iodide. Samples were visualized in a hemocytometer (Hausser Scientific, Horsham, Pa., USA) using an Olympus BX61 confocal microscope (Olympus, Tokyo, Japan) at 200× magnification in order to determine viability of the VBNC population. Cell counting data was averaged from four images and experiment was performed with at least two independent cultures.

[2] = tested on: gDNA (rrsG and murB) of E. coli K-12 BW25113/pCA24N; assay: qPCR of gDNA crosslinking in cells (in vivo); type: cell-based, Escherichia coli; details: MMC 100 μg/mL 1 h
Experimental: Overnight cultures (16 h) of E. coli K-12 BW25113/pCA24N grown in LB were diluted 1:1000 in buffered LB and grown to the desired turbidity. For exponential phase cells (i.e., non-persisters), cultures were grown to a turbidity of 2.0 at 600 nm. For rifampicin-induced persisters, cultures were grown to a turbidity of 0.8 at 600 nm, exposed to rifampicin (100 μg/mL) for 30 min, centrifuged, and resuspended in fresh medium to remove the rifampicin. Non-persister and rifampicin-induced persister cultures were treated with MMC (100 μg/mL) for 1 h. gDNA was extracted, using an UltraClean Microbial DNA Isolation Kit (MO BIO Laboratories, Carlsbad, Calif., USA), from samples taken before and after MMC treatment and 100 ng of DNA was used for qPCR of rrsG and murB using the GoTaq qPCR Master Mix (Promega, Madison, Wis., USA) and the StepOne Real-Time PCR System (Applied Biosystems, Foster City, Calif., USA) (primers are shown in Table 2). As a positive control, 3 μg of gDNA from BW25113 non-persisters was crosslinked in vitro with 500 μg/mL (1.5 mM) MMC in 0.2 mM EDTA, 50 mM NaCl, and 5 mM Tris (pH=7.6) with Na2S2O4 added six times at 10 min intervals to reach a final concentration of 2.25 mM (1.5× molarity of MMC). The in vitro crosslinking reaction was performed anaerobically on ice and the reaction was stopped by exposure to air.

[3] = tested on: S. aureus (methicillin sensitive); assay: Planktonic antibiotic killing assay; type: cell-based, Staphylococcus aureus; details: rich medium (TSB), MMC 10 μg/mL, ciprofloxacin 5 μg/mL, 3 h
Experimental: In order to obtain exponential and mid-stationary phase cultures in LB, buffered LB or TSB, overnight cultures (16 h) were diluted 1:1000 in fresh medium and grown to the desired turbidity (i.e., a turbidity below 2 at 600 nm for exponential phase and a turbidity of 3 to 4 at 600 nm for mid-stationary phase). Late-stationary phase cultures in LB or buffered LB were obtained by growing overnight cultures (16 h). In order to obtain exponential and late-stationary phase cultures in M9-glucose, overnight cultures (16 h) were washed diluted 1:1000 in M9-glucose and grown for the desired period of time (i.e., a turbidity of 0.4 at 600 nm for exponential phase and 24 h of growth for late-stationary phase). Anaerobically grown cultures were maintained with ˜20% CO2, ˜79% N2, and ˜1% H2. In order to obtain rifampicin-induced persister cultures in buffered LB, overnight cultures (16 h) were diluted 1:1000 in fresh medium and grown to a turbidity of 0.8 at 600 nm. Cultures were exposed to rifampicin (100 μg/mL) for 30 min, centrifuged, and resuspended in fresh medium to remove the rifampicin.

[4] = tested on: E. coli K-12 biofilm cultures; assay: Biofilm antibiotic killing assay; type: cell-based, Escherichia coli
DNA = details: Eastman 1987; cited from earlier work
E. coli K-12 cells = assay: Test of DNA crosslinking compounds for antimicrobial activity; type: cell-based, Escherichia coli; details: 100 μg/mL
Experimental: Stocks of cisplatin (2 mg/mL, Sigma-Aldrich, St. Louis, Mo., USA) were prepared in 0.1M NaClO4 and MMC (0.5 mg/mL, Fisher Scientific, Pittsburgh, Pa., USA) was prepared in water. Stocks of busulfan (2 mg/mL, Cayman Chemical, Ann Arbor, Mich., USA), melphalan (2 mg/mL, Cayman Chemical), dynemicin A (5 mg/mL, AdooQ, Irvine, Calif., USA), and tirapazamine (0.5 mg/mL, Sigma-Aldrich) were prepared in dimethylsulfoxide, the stock of cyclophosphamide (0.5 mg/mL, Cayman Chemical) was prepared in water, and the stock of carmustine (214 mg/mL, Enzo Life Sciences, Farmingdale, N.Y., USA) was prepared in ethanol.
In this Example we tested seven other DNA crosslinking compounds: busulfan (100 μg/mL), carmustine (100 μg/mL) cisplatin (100 μg/mL), cyclophosphamide (100 μg/mL), dynemicin A (200 μg/mL), melphalan (100 μg/mL), and tirapazamine (10 μg/mL).

[5] = tested on: clinical strains of P. aeruginosa; assay: Persister cell assay, multi-drug resistant clinical strains; type: cell-based, Pseudomonas aeruginosa; details: cisplatin 100 μg/mL
Experimental: For the persister cell assay of the pathogens, stationary-phase cells were used. Cultures of EHEC, P. aeruginosa, and S. aureus were prepared by a 1:1000 dilution of overnight grown cultures (LB medium for EHEC and P. aeruginosa, TSB for S. aureus) into fresh buffered LB medium for EHEC, M9-glucose for P. aeruginosa, and TSB for S. aureus and re-growing the cells to a turbidity of 3 to 4 at 600 nm for EHEC and S. aureus and growing for 24 h for P. aeruginosa. […]

Structure (SMILES)	cells surviving (EHEC biofilm cultures)	fold more effective at killing VBNC cells than ciprofloxacin ([1]; VBNC population (RedoxSensor Green), MMC 10 μg/mL vs ciprofloxacin 5 μg/mL) [fold]	survival of the culturable population ([1]; culturable population of VBNC cultures, MMC 10 μg/mL, ciprofloxacin 5 μg/mL)	Fold Change in amplifiable DNA ([2]; Non-persisters, murB) [fold]	Fold Change in amplifiable DNA ([2]; Non-persisters, rrsG) [fold]	Fold Change in amplifiable DNA ([2]; Persisters, murB) [fold]	Fold Change in amplifiable DNA ([2]; Persisters, rrsG) [fold]	survival ([3]; exponential phase)	survival ([3]; mid-stationary phase)	fold more susceptible to MMC than ciprofloxacin ([4]; anaerobic biofilm cultures in M9-glucose)	fold more cells killed than ciprofloxacin ([4]; biofilms in M9-glucose, 24 h of treatment)	biofilm cell viability after treatment ([4]; biofilms in M9-glucose, MMC 10 μg/mL, 24 h)	intrastrand crosslinks at AG sequences (DNA)	intrastrand crosslinks at GNG sequences (DNA) [%]	intrastrand crosslinks at adjacent guanines (DNA)	antimicrobial activity (E. coli K-12 cells)	survival ([5]; strain INP-37) [%]	survival ([5]; strain INP-57M) [%]	survival ([5]; strain INP-64M) [%]	survival ([5]; strain RME-101) [%]
CO[C@@]12[C@H](COC(N)=O)C3=C(C(=O)C(C)=C(N)C3=O)N1C[C@@H]1N[C@@H]12 [MMC, mitomycin C]	eradicated	7	eradicates the culturable population; also recorded: eradicating the culturable population	−5.13±0.14	−5.95±0.20	−5.99±0.50	−5.01±0.51	eradicating	eradicating	2,500 fold	100,000 fold	nearly eliminating cells	–	–	–	–	–	–	–	–
N.N.[Cl][Pt][Cl] [cisplatin, cis-diamminodichloroplatinum(II)]	–	–	–	–	–	–	–	–	–	–	–	–	17-19% and 17 to 19%	< 8	54-65% and 54 to 65%	exhibited antimicrobial activity	0.05±0.06	0.01±0.00	0.02±0.00	0.02±0.03
